Values of other authors in patent publication US6846831B2, “Method of treating the syndrome of lipodystrophy” (CPD, LLC, priority 2000, dated 2005).

Tests used:
[1] = biological target: μ opioid receptor (Rattus norvegicus, UniProt P33535); details: read-out: μ IC50; homogenates of rat brain minus cerebellum; prototype ligand DHM
[2] = biological target: δ opioid receptor (Rattus norvegicus, UniProt P33533); details: read-out: δ IC50; homogenates of rat brain minus cerebellum; prototype ligand DADLE
[3] = biological target: κ opioid receptor (Rattus norvegicus, UniProt P34975); details: read-out: κ IC50; homogenates of rat brain minus cerebellum; prototype ligand EKC
Sequence of κ opioid receptor (P34975 whole entry): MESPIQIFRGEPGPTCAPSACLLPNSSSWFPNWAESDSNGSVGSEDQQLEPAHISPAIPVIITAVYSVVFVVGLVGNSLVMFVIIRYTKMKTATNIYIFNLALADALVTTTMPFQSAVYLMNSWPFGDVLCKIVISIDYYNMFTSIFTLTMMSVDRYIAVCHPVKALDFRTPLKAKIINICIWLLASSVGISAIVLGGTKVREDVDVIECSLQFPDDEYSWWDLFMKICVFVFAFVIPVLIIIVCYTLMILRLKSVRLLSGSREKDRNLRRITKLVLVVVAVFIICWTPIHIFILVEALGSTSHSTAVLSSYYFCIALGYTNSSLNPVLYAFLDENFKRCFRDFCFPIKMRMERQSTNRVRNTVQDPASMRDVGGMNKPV

Sequence of δ opioid receptor (P33533 whole entry): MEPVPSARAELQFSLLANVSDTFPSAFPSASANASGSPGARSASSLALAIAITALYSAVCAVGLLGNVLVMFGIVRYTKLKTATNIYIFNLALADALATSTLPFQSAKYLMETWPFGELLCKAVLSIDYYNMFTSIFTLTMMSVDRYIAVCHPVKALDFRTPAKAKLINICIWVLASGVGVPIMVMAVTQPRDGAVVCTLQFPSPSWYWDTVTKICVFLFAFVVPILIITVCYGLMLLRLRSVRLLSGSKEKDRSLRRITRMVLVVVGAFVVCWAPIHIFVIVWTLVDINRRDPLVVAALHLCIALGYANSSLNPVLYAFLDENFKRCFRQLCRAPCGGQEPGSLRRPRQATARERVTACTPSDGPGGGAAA
Sequence of μ opioid receptor (P33535 whole entry): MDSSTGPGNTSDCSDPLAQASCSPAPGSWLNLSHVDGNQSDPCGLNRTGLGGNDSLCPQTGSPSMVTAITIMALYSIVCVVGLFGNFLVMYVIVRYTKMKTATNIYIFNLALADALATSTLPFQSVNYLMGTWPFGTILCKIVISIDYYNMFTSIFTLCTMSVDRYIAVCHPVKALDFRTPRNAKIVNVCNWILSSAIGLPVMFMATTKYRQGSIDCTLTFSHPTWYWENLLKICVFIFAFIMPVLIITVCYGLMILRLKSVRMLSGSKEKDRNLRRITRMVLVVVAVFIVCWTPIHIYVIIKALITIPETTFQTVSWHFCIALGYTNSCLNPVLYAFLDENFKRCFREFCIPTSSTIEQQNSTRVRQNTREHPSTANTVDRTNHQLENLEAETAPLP

Question: Which IC50 [1] does the source give for `C=C1CC[C@@]2(O)[C@H]3Cc4ccc(O)c5c4[C@@]2(CCN3CC2CC2)[C@H]1O5` [Nalmefene] here?
Answer: The IC50 was 1 nM.

Question: And the IC50 [2]?
Answer: Its IC50 is 6.1 nM.

Question: And the IC50 [3]?
Answer: Its IC50 is 5.3 nM.
